Measured values taken from patent US9422307B2, “2,4,7-substituted thieno[3,2-d]pyrimidine compounds as protein kinase inhibitors” (KOREA INSTITUTE OF SCIENCE AND TECHNOLOGY, priority 2009, dated 2016).
pIC50: −log10 of the molar value.

Columns and labels:
[1] = test system: HT-29 human colon adenocarcinoma cells; assay: Inhibition of proliferation of HT-29 human colon adenocarcinoma cells (MTT assay); type: cell-based; settings: HT-29 cells, read-out: Inhibition activity against proliferation of the HT-29 cells (GI50)
Method: HT-29 human colon adenocarcinoma cells were cultured in DMEM [10% FBS, 1% penicillin/streptomycin] at 37° C. in the presence of 5% CO2. The cultured HT-29 cells were harvested with 0.05% trypsin-0.02% EDTA and seeded in a 96-well plate at 5×10^3 cells per well.
3-(4,5-Dimethylthiazol-2-yl)-2,5-diphenyltetrazolium bromide (MTT) assay (CellTiter 96 Assay, Promega) was used to measure cell viability. After adding 15 μL of a dye per well and culturing for 2 hours, the cells were treated with 100 μL of a stop solution and absorbance was measured 24 hours later. The test compound was treated a day after plating. The test compound had been sequentially diluted at 12 concentrations from a 10 mM stock solution using sterilized dimethylsulfoxide (DMSO) and treated with an amount of 0.5 μL. Absorbance at 590 nm was recorded using EnVision2103, and GI50 value was calculated using GraphPad Prism 4.0 software.

Full sequence FAK = Full sequence FAK (Homo sapiens (Human), UniProt Q05397); assay: Measurement of FAK kinase activity (ULight-LANCE assay); type: biochemical; settings: TR-FRET, 3 nM FAK, 10 μM ATP; read-out: FAK inhibition activity (IC50)
Method: ULight-poly GT (PerkinElmer #TRF0100-D), Eu-anti-phospho-Tyr (PT66) (PerkinElmer #AD0068) and Lance detection buffer (PerkinElmer #CR-97-100) were purchased from PerkinElmer. […] 4× ULight-poly GT was adjusted to a final concentration of 100 nM. ATP (Sigma #A2383) was adjusted to a final concentration of 10 μM and in 2.5 μL aliquots. The test compound was sequentially diluted at 12 concentrations and treated with an amount of 0.5 μL. After shaking well and allowing to react at room temperature for 60 minutes, 5 μL of ethylenediaminetetraacetic acid (EDTA, final concentration 40 mM) diluted in Lance detection buffer (Lance detection buffer) was added and the mixture was left at room temperature for 5 minutes to stop the reaction. After adding 4× Eu-anti-phospho-Tyr (PT66) phosphorylated antibody diluted to a final concentration of 2 nM in detection buffer with an amount of 5 μL, and reaction was performed at room temperature for 60 minutes.

[2] = test system: prostate cancer PC-3, breast cancer BT-474, colon LoVo, lung cancer NCI-H460, glioblastoma U-87 MG and pancreatic cancer BxPC-3 cells; settings: cited from earlier work
tumor = settings: concurrent administration with docetaxel, animal model, P values<0.01; cited from earlier work

Full sequence FAK, sequence (Q05397 whole entry): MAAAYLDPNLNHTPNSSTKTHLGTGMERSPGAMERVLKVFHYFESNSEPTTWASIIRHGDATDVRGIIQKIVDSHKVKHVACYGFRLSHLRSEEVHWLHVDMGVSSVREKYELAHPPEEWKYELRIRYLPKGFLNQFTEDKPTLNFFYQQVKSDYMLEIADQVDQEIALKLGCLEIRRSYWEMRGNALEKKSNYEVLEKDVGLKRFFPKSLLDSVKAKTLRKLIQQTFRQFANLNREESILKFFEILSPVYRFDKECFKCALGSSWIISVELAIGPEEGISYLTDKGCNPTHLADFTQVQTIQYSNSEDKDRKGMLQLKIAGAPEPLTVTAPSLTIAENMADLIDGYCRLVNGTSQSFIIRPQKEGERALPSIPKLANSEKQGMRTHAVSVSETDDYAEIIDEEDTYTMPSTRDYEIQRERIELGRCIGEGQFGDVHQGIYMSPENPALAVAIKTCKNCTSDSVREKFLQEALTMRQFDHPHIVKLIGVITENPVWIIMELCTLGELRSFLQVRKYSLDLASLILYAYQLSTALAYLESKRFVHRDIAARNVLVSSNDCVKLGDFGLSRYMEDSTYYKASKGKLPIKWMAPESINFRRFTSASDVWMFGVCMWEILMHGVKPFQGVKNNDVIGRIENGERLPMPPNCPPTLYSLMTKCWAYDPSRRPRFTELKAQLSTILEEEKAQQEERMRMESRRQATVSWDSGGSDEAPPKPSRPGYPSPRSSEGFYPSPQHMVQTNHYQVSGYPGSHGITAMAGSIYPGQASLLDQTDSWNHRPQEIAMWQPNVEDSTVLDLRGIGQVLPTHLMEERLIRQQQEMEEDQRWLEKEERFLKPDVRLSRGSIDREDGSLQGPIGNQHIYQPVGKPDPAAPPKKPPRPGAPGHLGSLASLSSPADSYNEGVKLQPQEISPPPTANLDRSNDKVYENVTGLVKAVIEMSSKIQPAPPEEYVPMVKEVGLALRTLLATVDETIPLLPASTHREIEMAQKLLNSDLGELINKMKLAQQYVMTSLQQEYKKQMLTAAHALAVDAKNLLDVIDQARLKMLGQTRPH

| GI50 [1] [µM] | pIC50 (Full sequence FAK) | SMILES | inhibition of tumor growth or tumor degeneration ([2]; human tumor xenograft, 25-100 mg/kg p.o.) | toxicity observed ([2]; in vivo) | tumor reduction (tumor) |
| --- | --- | --- | --- | --- | --- |
| < 10 | > 5.00 | CNC(=O)c1cccc(-c2csc3c(N)nc(Nc4ccc(N5CCOCC5)nc4)nc23)c1 [Example 2, 3-(4-amino-2-(6-morpholinopyridin-3-ylamino)thieno[3,2-d]pyrimidin-7-yl)-N-methylbenzamide] |  |  |  |
| < 10 | > 5.00 | CNC(=O)c1cccc(-c2csc3c(N)nc(Nc4ccc(N5CCC(O)CC5)cc4)nc23)c1 [Example 3, 3-(4-amino-2-(4-(4-hydroxypiperidin-1-yl)phenylamino)thieno[3,2-d]pyrimidin-7-yl)-N-methylbenzamide] |  |  |  |
| < 10 | > 5.00 | CCN1CCN(c2ccc(Nc3nc(N)c4scc(-c5cccc(C(=O)NC)c5)c4n3)cc2)CC1 [Example 6, 3-(4-amino-2-(4-(4-ethylpiperazin-1-yl)phenylamino)thieno[3,2-d]pyrimidin-7-yl)-N-methylbenzamide] |  |  |  |
| < 10 | > 5.00 | CNC(=O)c1cccc(-c2csc3c(N)nc(Nc4ccc(N5CCC(N6CCCC6)CC5)cc4)nc23)c1 [Example 7, 3-(4-amino-2-(4-(4-(pyrrolidin-1-yl)piperidin-1-yl)phenylamino)thieno[3,2-d]pyrimidin-7-yl)-N-methylbenzamide] |  |  |  |
| < 10 | > 5.00 | COc1cc(Nc2nc(N)c3scc(-c4cccc(NC(=O)C5CC5)c4)c3n2)cc(OC)c1OC [Example 15, N-(3-(4-amino-2-(3,4,5-trimethoxyphenylamino)thieno[3,2-d]pyrimidin-7-yl)phenyl)cyclopropanecarboxamide] |  |  |  |
| < 10 | > 5.00 | CCS(=O)(=O)Nc1cccc(-c2csc3c(N)nc(Nc4cc(OC)c(OC)c(OC)c4)nc23)c1 [Example 17, N-(3-(4-amino-2-(3,4,5-trimethoxyphenylamino)thieno[3,2-d]pyrimidin-7-yl)phenyl)ethanesulfonamide] |  |  |  |
| < 10 | > 5.00 | CNS(=O)(=O)c1cccc(-c2csc3c(N)nc(Nc4cc(OC)c(OC)c(OC)c4)nc23)c1 [Example 26, 3-(4-amino-2-(3,4,5-trimethoxyphenylamino)thieno[3,2-d]pyrimidin-7-yl)-N-methylbenzenesulfonamide] |  |  |  |
| < 10 | > 5.00 | CCN1CCN(c2ccc(Nc3nc(N)c4scc(-c5cccc(NS(C)(=O)=O)c5)c4n3)cn2)CC1 [Example 27, N-(3-(4-amino-2-(6-(4-ethylpiperazin-1-yl)pyridin-3-ylamino)thieno[3,2-d]pyrimidin-7-yl)phenyl)methanesulfonamide] |  |  |  |
| < 10 | > 5.00 | CCN1CCN(c2ccc(Nc3nc(N)c4scc(-c5cnc6ccccc6c5)c4n3)cn2)CC1 [Example 39, N^2-(6-(4-ethylpiperazin-1-yl)pyridin-3-yl)-7-(quinolin-3-yl)thieno[3,2-d]pyrimidin-2,4-diamine] |  |  |  |
| < 10 | > 5.00 | CCN1CCN(c2ccc(Nc3nc(N)c4scc(-c5cnc6ccccc6c5)c4n3)cc2)CC1 [Example 41, N^2-(4-(4-ethylpiperazin-1-yl)phenyl)-7-(quinolin-3-yl)thieno[3,2-d]pyrimidin-2,4-amine] |  |  |  |
| < 10 | > 5.00 | Nc1nc(Nc2ccc(N3CCOCC3)nc2)nc2c(-c3cnc4ccccc4c3)csc12 [Example 42, N^2-(6-morpholinopyridin-3-yl)-7-(quinolin-3-yl)thieno[3,2-d]pyrimidin-2,4-diamine] |  |  |  |
| < 10 | > 5.00 | CCN1CCN(c2cccc(Nc3nc(N)c4scc(-c5cnc6ccccc6c5)c4n3)c2)CC1 [Example 43, N^2-(3-(4-ethylpiperazin-1-yl)phenyl)-7-(quinolin-3-yl)thieno[3,2-d]pyrimidin-2,4-diamine] |  |  |  |
| < 10 |  | C#Cc1csc2c(NCc3ccccc3)nc(NC[C@H](C)O)nc12 [Example 44, (S)-1-(4-(benzylamino)-7-ethynylthieno[3,2-d]pyrimidin-2-ylamino)propan-2-ol] |  |  |  |
| < 10 | > 5.00 | C#Cc1csc2c(N[C@H](C)c3ccccc3)nc(NC[C@H](C)O)nc12 [Example 45, (S)-1-(7-ethynyl-4-((R)-1-phenylethylamino)thieno[3,2-d]pyrimidin-2-ylamino)propan-2-ol] |  |  |  |
| < 10 | > 5.00 | C=Cc1csc2c(NCc3ccccc3)nc(NCCN3CCOCC3)nc12 [Example 46, N^4-benzyl-N^2-(2-morpholinoethyl)-7-vinylthieno[3,2-d]pyrimidin-2,4-diamine] |  |  |  |
| < 10 | > 5.00 | C=Cc1csc2c(N[C@H](C)c3ccccc3)nc(NCCN3CCOCC3)nc12 [Example 47, (R)—N^2-(2-morpholinoethyl)-N^4-(1-phenylethyl)-7-vinylthieno[3,2-d]pyrimidin-2,4-diamine] |  |  |  |
| < 10 | > 5.00 | CCc1csc2c(NCc3ccccc3)nc(NCCN3CCOCC3)nc12 [Example 48, N^4-benzyl-7-ethyl-N^2-(2-morpholinoethyl)thieno[3,2-d]pyrimidin-2,4-diamine] |  |  |  |
|  |  | CN(c1ncccc1CNc1nc(Nc2ccc3c(c2)CC(=O)N3)ncc1C(F)(F)F)S(C)(=O)=O [PF-562271] | 42-90% | No special toxicity has been observed |  |
|  |  | CNC(=O)c1ccccc1Nc1nc(Nc2ccc(N3CCOCC3)cc2OC)ncc1Cl [TAE226] |  |  | 85-97% |
